Measurements from patent US20080076760A1, “2,3,4,5-TETRAHYDRO-1H-1,5-BENZODIAZEPINE DERIVATIVE AND MEDICINAL COMPOSITION” (priority 2004, published 2008).
Structures can show the parent of a compound that is named as a salt.

What was measured:
male ICR mice = experiment: Acute toxicity study, oral, male ICR mice; type: in vivo, mouse; conditions: single administration in 0.5% methylcellulose, observed 6 days
Method: Test compound suspended in 0.5% methylcellulose solution was orally administered to male ICR mice (body weight 25 to 35 g), which were separated into groups each having 5 mice, and body weight change and general symptom after 6 days since administration were observed. During the test period except for 17 to 20 hours before administration and after 2 hours since administration, mice were allowed to take feed and water ad libitum.

V1a receptor = target: T1, V1a receptor (Rattus norvegicus, UniProt P30560); experiment: V1a receptor antagonism in awake rat (oral administration), inhibition of AVP-induced vasopressure; type: in vivo; conditions: for AVP vasopressure inhibition effect after 8 hours since administration: 8 hours after administration; for maximum vasopressure inhibition rate: one third of the 3 mg/kg SR49059 dose, maximum after 2 to 6 hours since administration, 30 mU/kg AVP i.v.
T1 construct: from tissue; host or cells: whole animal: awake male Sprague-Dawley rats
T1 sequence (P30560 whole entry): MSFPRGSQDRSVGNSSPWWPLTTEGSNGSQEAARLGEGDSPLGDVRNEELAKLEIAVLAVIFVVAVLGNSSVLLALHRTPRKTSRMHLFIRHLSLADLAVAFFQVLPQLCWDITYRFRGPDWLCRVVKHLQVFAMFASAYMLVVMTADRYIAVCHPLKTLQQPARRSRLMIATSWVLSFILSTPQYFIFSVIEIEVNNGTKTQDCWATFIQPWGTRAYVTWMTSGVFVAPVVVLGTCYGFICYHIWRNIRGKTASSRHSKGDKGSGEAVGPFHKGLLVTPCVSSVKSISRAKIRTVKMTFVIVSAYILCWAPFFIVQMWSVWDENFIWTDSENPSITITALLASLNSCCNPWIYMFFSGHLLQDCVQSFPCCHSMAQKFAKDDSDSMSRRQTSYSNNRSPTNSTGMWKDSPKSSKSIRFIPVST
Method: One day before evaluation of test compounds, a cannula for blood pressure measurement was inserted into left carotid artery, and a cannula for arginine vasopressin (AVP) administration was inserted into left cervical vein. Blood pressure of artery cannula was measured via pressure transducer during rats were awake. During evaluation of test compounds, elevation breadth of mean blood pressure resulting from intravenous administration of 30 mU/kg of AVP was determined as a vasopressure control, in advance. After test compound was suspended in 0.5% methylcellulose solution and orally administered at 1 to 3 mg/kg, 30 mU/kg of AVP was intravenously administered at fixed time points from 0.5 to 8 hours, and vasopressure value was measured. [Vasopressure inhibition rate (%) at each measurement point after administration]=[(A−B)/A]×100 Wherein, control vasopressure=A, and vasopressure value at each measurement point=B

[1] = target: human vasopressin V2 receptor (Homo sapiens, UniProt P30518); experiment: Receptor binding study, [3H]AVP displacement on CHO cell membranes, human V2; conditions: [3H]AVP displacement, CHO cell membrane, 25° C., one hour; read-out: Human V2 Ki
Chain of human vasopressin V2 receptor (P30518 whole entry): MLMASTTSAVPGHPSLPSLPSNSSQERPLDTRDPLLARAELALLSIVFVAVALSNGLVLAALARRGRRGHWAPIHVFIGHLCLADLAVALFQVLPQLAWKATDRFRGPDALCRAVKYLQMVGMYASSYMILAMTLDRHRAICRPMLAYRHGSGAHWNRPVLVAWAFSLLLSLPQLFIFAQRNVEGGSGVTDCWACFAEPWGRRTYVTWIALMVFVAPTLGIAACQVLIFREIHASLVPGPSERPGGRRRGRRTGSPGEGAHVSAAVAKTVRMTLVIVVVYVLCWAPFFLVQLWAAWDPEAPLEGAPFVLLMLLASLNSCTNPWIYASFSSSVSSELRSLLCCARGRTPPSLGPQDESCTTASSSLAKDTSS
Outline: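 Membranes from CHO cells expressing human V2 receptor incubated with [3H]AVP (0.5-1.0 nM) and test compound at various concentrations in 50 mM Tris-HCl pH 7.4 with MgCl2 and 0.1% BSA, 1 h at 25 °C. Bound radioactivity counted after glass-fibre filtration; nonspecific binding defined with 1 μM unlabelled AVP.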

[2] = target: human vasopressin V1a receptor (Homo sapiens, UniProt P37288); experiment: Receptor binding study, [3H]AVP displacement on CHO cell membranes, human V1a; conditions: [3H]AVP displacement, CHO cell membrane, 25° C., one hour; read-out: Human V1a Ki
Chain of human vasopressin V1a receptor (P37288 whole entry): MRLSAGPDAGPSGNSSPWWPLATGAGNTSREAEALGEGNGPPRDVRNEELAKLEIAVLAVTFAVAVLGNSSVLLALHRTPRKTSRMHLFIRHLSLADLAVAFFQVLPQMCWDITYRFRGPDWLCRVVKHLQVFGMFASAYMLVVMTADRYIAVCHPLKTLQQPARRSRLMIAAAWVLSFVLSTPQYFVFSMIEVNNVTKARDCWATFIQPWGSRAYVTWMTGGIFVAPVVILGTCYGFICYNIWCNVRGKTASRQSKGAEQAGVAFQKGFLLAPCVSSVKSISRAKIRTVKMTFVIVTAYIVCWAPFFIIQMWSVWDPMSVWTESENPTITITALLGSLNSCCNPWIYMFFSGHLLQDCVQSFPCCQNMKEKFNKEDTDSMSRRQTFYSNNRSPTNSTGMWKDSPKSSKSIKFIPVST
Outline: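 Membrane binding in 50 mM Tris-HCl pH 7.4 with MgCl2 and 0.1% BSA, incubated 1 h at 25° C. Bound ligand collected by rapid filtration on glass fiber filters, washed with ice-cold buffer, and counted for radioactivity. Nonspecific binding defined with 1 μM unlabeled AVP.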

SMILES	Ki [1] [nM]	Ki [2] [nM]	Toxicity expressing dose (male ICR mice) [mg/kg]	AVP vasopressure inhibition effect after 8 hours since administration (V1a receptor)	maximum vasopressure inhibition rate (V1a receptor) [%]
CCCCN1CCN(CCCOc2cc(C(=O)N3CC[C@H](C)Nc4ccccc43)ccc2-c2ccc3[nH]ccc3c2)CC1 [122 maleate]			>300	significant AVP vasopressure inhibition effect	67.3
CCCN(C)CCCCOc1cc(C(=O)N2CC[C@H](C)Nc3ccccc32)ccc1-c1ccc2[nH]ccc2c1 [117 fumarate]			>300	significant AVP vasopressure inhibition effect	77.7
CC1CCN(C(=O)c2ccc(-c3ccc4[nH]ccc4c3)c(OCCCN)c2)c2ccccc2N1 (stereo not drawn) [Example 30, 3-[2-(1H-indol-5-yl)-5-[(4-methyl-2,3,4,5-tetrahydro-1H-1,5-benzodiazepin-1-yl)carbonyl]phenoxy]-1-propaneamine]	17	0.091			
CC(=O)Nc1cc(C(=O)N2CCC(C)Nc3ccccc32)ccc1-c1ccc2[nH]ccc2c1 (stereo not drawn) [Example 3, N-[2-(1H-indol-5-yl)-5-[(4-methyl-2,3,4,5-tetrahydro-1H-1,5-benzodiazepin-1-yl)carbonyl]phenyl]acetamide]	22	0.18			
C[C@H]1CCN(C(=O)c2ccc(-c3ccc4[nH]ccc4c3)c(OCCCN)c2)c2ccccc2N1 [Example 38, 3-[2-(1H-indol-5-yl)-5-[[(4S)-4-methyl-2,3,4,5-tetrahydro-1H-1,5-benzodiazepin-1-yl]carbonyl]phenoxy]propylamine]	11	0.086			

Second part, led by results:

Ki [1] [nM]	Ki [2] [nM]	SMILES	Toxicity expressing dose (male ICR mice) [mg/kg]	AVP vasopressure inhibition effect after 8 hours since administration (V1a receptor)	maximum vasopressure inhibition rate (V1a receptor) [%]
4.9	0.13	CC1CCN(C(=O)c2ccc(-c3ccc4[nH]ccc4c3)c(OCCCNC(=O)CN)c2)c2ccccc2N1 (stereo not drawn) [Example 169, 2-amino-N-[3-[2-(1H-indol-5-yl)-5-[(4-methyl-2,3,4,5-tetrahydro-1H-1,5-benzodiazepin-1-yl]carbonyl]phenoxy]propyl]acetamide]			
731	0.41	C[C@H]1CCN(C(=O)c2ccc(-c3ccc(N)cc3)c(OCCCN)c2)c2ccccc2N1 [Example 54, 2′-(3-aminopropoxy)-4′-[[(4S)-4-methyl-2,3,4,5-tetrahydro-1H-1,5-benzodiazepin-1-yl]carbonyl][1,1′-biphenyl]-4-amine]			
9.6	0.23	CCCCN1CCN(CCOc2cc(C(=O)N3CC[C@H](C)Nc4ccccc43)ccc2-c2ccc3[nH]ccc3c2)CC1 [Example 148, (4S)-1-[3-[2-(4-butyl-1-piperazinyl)ethoxy]-4-(1H-indol-5-yl)benzoyl]-4-methyl-2,3,4,5-tetrahydro-1H-1,5-benzodiazepine]			
11	0.16	CCN(CC)CCCOc1cc(C(=O)N2CC[C@H](C)Nc3ccccc32)ccc1-c1ccc2[nH]ccc2c1 [Example 116, N,N-diethyl-3-[2-(1H-indol-5-yl)-5-[[(4S)-4-methyl-2,3,4,5-tetrahydro-1H-1,5-benzodiazepin-1-yl]carbonyl]phenoxy]-1-propaneamine]			
19	0.29	C[C@H]1CCN(C(=O)c2ccc(-c3ccc4[nH]ccc4c3)c(NC(=O)N3CCOCC3)c2)c2ccccc2N1 [Example 89, N-[2-(1H-indol-5-yl)-5-[[(4S)-4-methyl-2,3,4,5-tetrahydro-1H-1,5-benzodiazepin-1-yl]carbonyl]phenyl]-4-morpholine carboxamide]			
28	0.11	C[C@H]1CCN(C(=O)c2ccc(-c3ccc4[nH]ccc4c3)c(C(=O)OCCN(C)C)c2)c2ccccc2N1 [Example 144, 2-(dimethylamino)ethyl 2-(1H-indol-5-yl)-5-[[(4S)-4-methyl-2,3,4,5-tetrahydro-1H-1,5-benzodiazepin-1-yl]carbonyl]benzoate]			
